In ChEMBL document CHEMBL3091428, “Synthesis and initial biological evaluation of substituted 1-phenylamino-2-thio-4,5-dimethyl-1H-imidazole derivatives” (Bioorg Med Chem Lett, 2013):
≈ marks a conversion by molar mass, not a printed value.

Assays:
UACC-62 = test: Cytotoxicity against human UACC62 cells assessed as cell growth after 48 hrs by SRB assay relative to control; assay type: functional
[1] = Cytotoxicity against human OVCAR4 cells assessed as cell growth after 48 hrs by SRB assay relative to control; assay type: functional, OVCAR-4
HT-29 = test: Cytotoxicity against human HT-29 cells assessed as cell growth after 48 hrs by SRB assay relative to control; assay type: functional
SR = test: Cytotoxicity against human SR cells assessed as cell growth after 48 hrs by SRB assay relative to control; assay type: functional
[2] = Cytotoxicity against human UACC257 cells assessed as cell growth after 48 hrs by SRB assay relative to control; assay type: functional, UACC-257
OVCAR-3 = test: Cytotoxicity against human OVCAR3 cells assessed as cell growth after 48 hrs by SRB assay relative to control; assay type: functional
A498 = test: Cytotoxicity against human A498 cells assessed as cell growth after 48 hrs by SRB assay relative to control; assay type: functional
NCI-H522 = test: Cytotoxicity against human NCI-H522 cells assessed as cell growth after 48 hrs by SRB assay relative to control; assay type: functional
SK-MEL-28 = test: Cytotoxicity against human SK-MEL-28 cells assessed as cell growth after 48 hrs by SRB assay relative to control; assay type: functional
T47D = test: Cytotoxicity against human T47D cells assessed as cell growth after 48 hrs by SRB assay relative to control; assay type: functional
Pseudomonas aeruginosa = test: Antimicrobial activity against Pseudomonas aeruginosa ATCC 27853 after 24 hrs by broth microdilution method; assay type: functional; conditions: ATCC 27853, 24 h
RXF 393 = test: Cytotoxicity against human RXF393 cells assessed as cell growth after 48 hrs by SRB assay relative to control; assay type: functional
Klebsiella pneumoniae = test: Antimicrobial activity against Klebsiella pneumoniae ATCC 13883 after 24 hrs by broth microdilution method; assay type: functional; conditions: ATCC 13883, 24 h
SNB-75 = test: Cytotoxicity against human SNB75 cells assessed as cell growth after 48 hrs by SRB assay relative to control; assay type: functional
CAKI-1 = test: Cytotoxicity against human Caki1 cells assessed as cell growth after 48 hrs by SRB assay relative to control; assay type: functional
Nakaseomyces glabratus = test: Antimicrobial activity against Candida glabrata ATCC 90030 after 24 hrs by broth microdilution method; assay type: functional; conditions: ATCC 90030, 24 h
Enterococcus faecalis = test: Antimicrobial activity against Enterococcus faecalis ATCC 29212 after 24 hrs by broth microdilution method; assay type: functional; conditions: ATCC 29212, 24 h
LOX IMVI = test: Cytotoxicity against human LOXIMVI cells assessed as cell growth after 48 hrs by SRB assay relative to control; assay type: functional
HL-60(TB) = test: Cytotoxicity against human HL-60(TB) cells assessed as cell growth after 48 hrs by SRB assay relative to control; assay type: functional
CCRF-CEM = test: Cytotoxicity against human CCRF-CEM cells assessed as cell growth after 48 hrs by SRB assay relative to control; assay type: functional
Pichia kudriavzevii = test: Antimicrobial activity against Candida krusei ATCC 6258 after 24 hrs by broth microdilution method; assay type: functional; conditions: ATCC 6258, 24 h
M14 = test: Cytotoxicity against human M14 cells assessed as cell growth after 48 hrs by SRB assay relative to control; assay type: functional
SF-295 = test: Cytotoxicity against human SF295 cells assessed as cell growth after 48 hrs by SRB assay relative to control; assay type: functional
HCC 2998 = test: Cytotoxicity against human HCC2998 cells assessed as cell growth after 48 hrs by SRB assay relative to control; assay type: functional
[3] = Cytotoxicity against human UO31 cells assessed as cell growth after 48 hrs by SRB assay relative to control; assay type: functional, UO-31
SN12C = test: Cytotoxicity against human SN12C cells assessed as cell growth after 48 hrs by SRB assay relative to control; assay type: functional
Candida albicans = test: Antimicrobial activity against Candida albicans ATCC 90028 after 24 hrs by broth microdilution method; assay type: functional; conditions: ATCC 90028, 24 h
IGROV-1 = test: Cytotoxicity against human IGROV1 cells assessed as cell growth after 48 hrs by SRB assay relative to control; assay type: functional
SW-620 = test: Cytotoxicity against human SW620 cells assessed as cell growth after 48 hrs by SRB assay relative to control; assay type: functional
K562 = test: Cytotoxicity against human K562 cells assessed as cell growth after 48 hrs by SRB assay relative to control; assay type: functional
A549 = test: Cytotoxicity against human A549 cells assessed as cell growth after 48 hrs by SRB assay relative to control; assay type: functional
NCI-H226 = test: Cytotoxicity against human NCI-H226 cells assessed as cell growth after 48 hrs by SRB assay relative to control; assay type: functional
SF-268 = test: Cytotoxicity against human SF268 cells assessed as cell growth after 48 hrs by SRB assay relative to control; assay type: functional
HCT-116 = test: Cytotoxicity against human HCT116 cells assessed as cell growth after 48 hrs by SRB assay relative to control; assay type: functional
DU-145 = test: Cytotoxicity against human DU145 cells assessed as cell growth after 48 hrs by SRB assay relative to control; assay type: functional
BT-549 = test: Cytotoxicity against human BT549 cells assessed as cell growth after 48 hrs by SRB assay relative to control; assay type: functional
Escherichia coli = test: Antimicrobial activity against Escherichia coli ATCC 25922 after 24 hrs by broth microdilution method; assay type: functional; conditions: ATCC 25922, 24 h
MDA-MB-435 = test: Cytotoxicity against human MDA-MB-435 cells assessed as cell growth after 48 hrs by SRB assay relative to control; assay type: functional
U-251 = test: Cytotoxicity against human U251 cells assessed as cell growth after 48 hrs by SRB assay relative to control; assay type: functional
MDA-MB-231 = test: Cytotoxicity against human MDA-MB-231 cells assessed as cell growth after 48 hrs by SRB assay relative to control; assay type: functional
SK-OV-3 = test: Cytotoxicity against human SKOV3 cells assessed as cell growth after 48 hrs by SRB assay relative to control; assay type: functional
[4] = Cytotoxicity against human NCI-ADR-RES cells assessed as cell growth after 48 hrs by SRB assay relative to control; assay type: functional
ACHN = test: Cytotoxicity against human ACHN cells assessed as cell growth after 48 hrs by SRB assay relative to control; assay type: functional
[5] = Cytotoxicity against human OVCAR5 cells assessed as cell growth after 48 hrs by SRB assay relative to control; assay type: functional, OVCAR-5
TK-10 = test: Cytotoxicity against human TK10 cells assessed as cell growth after 48 hrs by SRB assay relative to control; assay type: functional
MCF7 = test: Cytotoxicity against human MCF7 cells assessed as cell growth after 48 hrs by SRB assay relative to control; assay type: functional
COLO 205 = test: Cytotoxicity against human COLO205 cells assessed as cell growth after 48 hrs by SRB assay relative to control; assay type: functional
NCI-H460 = test: Cytotoxicity against human NCI-H460 cells assessed as cell growth after 48 hrs by SRB assay relative to control; assay type: functional
786-0 = test: Cytotoxicity against human 786-0 cells assessed as cell growth after 48 hrs by SRB assay relative to control; assay type: functional

Cc1nc(SCC(=O)c2ccccc2)n(Nc2ccccc2)c1C
Activity (UACC-62): 102.6%
Activity [1]: 105.2%
Activity (HT-29): 97.65%
Activity (SR): 82.35%
Activity [2]: 97.59%
Activity (OVCAR-3): 109.4%
Activity (A498): 91.12%
Activity (NCI-H522): 81.35%
Activity (SK-MEL-28): 110.7%
Activity (T47D): 85.54%
MIC (Pseudomonas aeruginosa): 200 µg/mL (≈ 593 µM)
Activity (RXF 393): 103.1%
MIC (Klebsiella pneumoniae): 800 µg/mL (≈ 2370 µM)
Activity (SNB-75): 108.2%
Activity (CAKI-1): 88.11%
MIC (Nakaseomyces glabratus): 800 µg/mL (≈ 2370 µM)
MIC (Enterococcus faecalis): 800 µg/mL (≈ 2370 µM)
Activity (LOX IMVI): 102.1%
Activity (HL-60(TB)): 91%
Activity (CCRF-CEM): 90.27%
MIC (Pichia kudriavzevii): 400 µg/mL (≈ 1190 µM)
Activity (M14): 101.1%
Activity (SF-295): 86.98%
Activity (HCC 2998): 110.5%
Activity [3]: 68.6%
Activity (SN12C): 99.9%
MIC (Candida albicans): 400 µg/mL (≈ 1190 µM)
Activity (IGROV-1): 98.59%
Activity (SW-620): 109.1%
Activity (K562): 89.68%
Activity (A549): 99.16%
Activity (NCI-H226): 99.07%
Activity (SF-268): 101.9%
Activity (HCT-116): 86.93%
Activity (DU-145): 109.3%
Activity (BT-549): 88.93%
MIC (Escherichia coli): 800 µg/mL (≈ 2370 µM)
Activity (MDA-MB-435): 97.36%
Activity (U-251): 97.26%
Activity (MDA-MB-231): 98.84%
Activity (SK-OV-3): 97.79%
Activity [4]: 96.87%
Activity (ACHN): 106.6%
Activity [5]: 109.7%
Activity (TK-10): 127.6%
Activity (MCF7): 96.9%
Activity (COLO 205): 110.9%
Activity (NCI-H460): 104.4%
Activity (786-0): 106.4%

Cc1nc(SCC(=O)c2ccc(Cl)cc2)n(Nc2ccccc2)c1C
Activity (UACC-62): 90.32%
Activity [1]: 93.89%
Activity (HT-29): 99.26%
Activity (SR): 86.04%
Activity [2]: 97.88%
Activity (OVCAR-3): 108.6%
Activity (A498): 82.14%
Activity (NCI-H522): 79.92%
Activity (SK-MEL-28): 108.7%
Activity (T47D): 79.51%
MIC (Pseudomonas aeruginosa): 400 µg/mL (≈ 1080 µM)
Activity (RXF 393): 96.88%
MIC (Klebsiella pneumoniae): 800 µg/mL (≈ 2150 µM)
Activity (SNB-75): 94.11%
Activity (CAKI-1): 78.89%
MIC (Nakaseomyces glabratus): 400 µg/mL (≈ 1080 µM)
MIC (Enterococcus faecalis): 200 µg/mL (≈ 538 µM)
Activity (LOX IMVI): 101.4%
Activity (HL-60(TB)): 92.02%
Activity (CCRF-CEM): 81.64%
MIC (Pichia kudriavzevii): 200 µg/mL (≈ 538 µM)
Activity (M14): 107.4%
Activity (SF-295): 89.88%
Activity (HCC 2998): 106.9%
Activity [3]: 66.15%
Activity (SN12C): 93.18%
MIC (Candida albicans): 200 µg/mL (≈ 538 µM)
Activity (IGROV-1): 102.1%
Activity (SW-620): 108.9%
Activity (K562): 88.1%
Activity (A549): 86.67%
Activity (NCI-H226): 95.15%
Activity (SF-268): 103.9%
Activity (HCT-116): 90.7%
Activity (DU-145): 115.8%
Activity (BT-549): 104.7%
MIC (Escherichia coli): 800 µg/mL (≈ 2150 µM)
Activity (MDA-MB-435): 99.36%
Activity (U-251): 90.68%
Activity (MDA-MB-231): 95.48%
Activity (SK-OV-3): 102.4%
Activity [4]: 93.39%
Activity (ACHN): 102.7%
Activity [5]: 103.9%
Activity (TK-10): 117.2%
Activity (MCF7): 88.08%
Activity (COLO 205): 96.15%
Activity (NCI-H460): 98.85%
Activity (786-0): 97.67%

COc1ccc(C(=O)CSc2nc(C)c(C)n2Nc2ccccc2)cc1
Activity (UACC-62): 90.38%
Activity [1]: 92.83%
Activity (HT-29): 94.25%
Activity (SR): 83.4%
Activity [2]: 99.75%
Activity (OVCAR-3): 101.3%
Activity (A498): 90.87%
Activity (NCI-H522): 77.18%
Activity (SK-MEL-28): 113.1%
Activity (T47D): 71.62%
MIC (Pseudomonas aeruginosa): 200 µg/mL (≈ 544 µM)
Activity (RXF 393): 85.48%
MIC (Klebsiella pneumoniae): 800 µg/mL (≈ 2180 µM)
Activity (SNB-75): 93.05%
Activity (CAKI-1): 81.41%
MIC (Nakaseomyces glabratus): 800 µg/mL (≈ 2180 µM)
MIC (Enterococcus faecalis): 400 µg/mL (≈ 1090 µM)
Activity (LOX IMVI): 104.8%
Activity (HL-60(TB)): 87.13%
Activity (CCRF-CEM): 89.68%
MIC (Pichia kudriavzevii): 800 µg/mL (≈ 2180 µM)
Activity (M14): 91.19%
Activity (SF-295): 90.39%
Activity (HCC 2998): 93.49%
Activity [3]: 69.91%
Activity (SN12C): 98.88%
MIC (Candida albicans): 400 µg/mL (≈ 1090 µM)
Activity (IGROV-1): 103.3%
Activity (SW-620): 105.7%
Activity (K562): 87.79%
Activity (A549): 97.35%
Activity (NCI-H226): 92.08%
Activity (SF-268): 104.5%
Activity (HCT-116): 96.71%
Activity (DU-145): 111.6%
Activity (BT-549): 84.66%
MIC (Escherichia coli): 400 µg/mL (≈ 1090 µM)
Activity (MDA-MB-435): 95.25%
Activity (U-251): 93.77%
Activity (MDA-MB-231): 89.05%
Activity (SK-OV-3): 93.26%
Activity [4]: 83.61%
Activity (ACHN): 99.05%
Activity [5]: 99.29%
Activity (TK-10): 109.3%
Activity (MCF7): 105.7%
Activity (COLO 205): 100.5%
Activity (NCI-H460): 96.54%
Activity (786-0): 90.03%
